According to patent publication US8530491B2, “Antimalarial compounds with flexible side-chains” (Medicines for Malaria Venture (MMV), priority 2007, dated 2013):
Values after ≈ are worked out from the molar mass of the structure shown. Like-named read-outs stand apart in the source and are kept apart here.

Columns and labels:
[1] = Oral bioavailability and pharmacokinetics in male Sprague Dawley rats; format: in vivo; conditions: for Oral BA: i.v. and oral dosing; for Vd / clearance / half-life: rat, plasma; for Vd: intravenous; for clearance / half-life: iv, i.v. dosing; for clearance: read-out: i.v. CL(plasma); for half-life: read-out: i.v. t1/2 (converted)
Method: Rats had free access to water throughout the pre- and post-dose sampling period, and access to food was re-instated 4 hours post-dosing. Test compounds were administered intravenously as a 5 minute constant rate infusion (1.0 mL per rat) and orally by gavage (1.0 mL per rat). The IV formulations were typically buffered aqueous solutions containing a co-solvent if required for solubilization. The oral formulations were prepared as suspensions in hydroxypropylmethyl cellulose or carboxymethyl cellulose, each with the addition of Tween 80 and benzyl alcohol. Samples of arterial blood and total urine were collected up to 24 hours post-dose. Arterial blood was collected directly into borosilicate vials (at 4° C.) containing heparin, a protease inhibitor cocktail, potassium fluoride, and EDTA to minimise the potential for ex vivo degradation of the test compound in blood/plasma samples. Once collected, blood samples were centrifuged, supernatant plasma was removed and stored at −20° C., and plasma concentrations of test compound were determined by LCMS.

[2] = test system: P. falciparum TM4/8.2 (wild type); assay: In vitro anti-plasmodial activity, [3H]-hypoxanthine incorporation; format: cell-based, Plasmodium falciparum
P. chabaudi AS [3] = assay: Standard 4-day Peters' test against P. chabaudi AS in mice; format: in vivo, Plasmodium chabaudi; conditions: for ED50 / ED90: Plasmodium chabaudi, 96 h, oral, 4-day Peters' test; for ED50: 50% reduction in parasitaemia; for ED90: 90% reduction in parasitaemia; for ED90 P. chabaudi AS, oral: oral administration, mice (Table 1)
Method: Briefly, 20 gr CD1 male mice (Charles Rivers, UK) were kept in specific pathogen-free conditions and fed ad libitum. For oral administration, compounds were dissolved in standard suspending formula (SSV) [0.5% sodium carboxymethylcellulose, 0.5% benzyl alcohol, 0.4% Tween 80, 0.9% NaCl (all Sigma)] and for intraperitoneal or subcutaneous administration compounds were dissolved in 0.5% w/v hydroxypropylmethylcellulose, 0.4% v/v Tween 80, 0.5% V/v benzyl alcohol in de-ionised water]. Mice were infected intravenously with 4×10^6 infected red cells and treated orally (p.o.) with 0.2 ml of a solution of the test compounds two hours (day 0) and on days 1, 2 and 3 post-infection. Parasitaemia was determined by microscopic examination of Giemsa stained blood films taken on day 4. Microscopic counts of blood films from each mouse were processed using GraphPad Prism 4 (GraphPad Software, Inc., CA, USA) and expressed as percentages of inhibition from the arithmetic mean parasitaemias of each group in relation to the untreated group. Compounds were tested in an initial screening at 30 mg/kg/day against P. chabaudi AS (non-resistant) over the period described and percentages of inhibition calculated in relation to the untreated controls. Compounds giving 80% inhibition or above were then tested in the same model under a range of doses over the period described in order to obtain dose response curves and calculate their ED50 and ED90 values. […] From the ED90 values is clear that a number of compounds have exquisite activity in this model and are also tested in P. chabaudi ASP and P. berghei ANKA.

Pf DHFR WT = molecular target: T1, Pf DHFR WT (Plasmodium falciparum, UniProt A7UD81); assay: Pf DHFR enzyme inhibition (Ki), wild type; format: biochemical
T1 construct: made in house; host or cells: E. coli BL21(DE3)pLysS

E. coli = assay: Antibacterial activity, minimal inhibitory concentration on agar plates; format: cell-based; conditions: Escherichia coli; complete inhibition of growth on agar plates
[4] = Cytotoxicity in mammalian cells; format: cell-based; conditions: African green monkey, Vero cells (African green monkey kidney epithelial cells)
S. aureus = assay: Antibacterial activity, minimal inhibitory concentration on agar plates; format: cell-based; conditions: Staphylococcus aureus; complete inhibition of growth on agar plates
[5] = molecular target: T2, Pf DHFR N51I + C59R + S108N + I164L (Plasmodium falciparum, UniProt A7UD81, C59R/I164L/N51I/S108N); assay: biochemical
T2 construct: made in house; host or cells: E. coli BL21(DE3)pLysS

[6] = rat, in vivo
P. falciparum Wild Type = assay: Anti-malarial activity against P. falciparum in vitro, wild type (Table 1); format: cell-based, Plasmodium falciparum
P. chabaudi AS [7] = assay: Standard 4-day Peters' test against P. chabaudi AS in mice; format: in vivo, Plasmodium chabaudi; conditions: s.c. administration, mice (Table 1)
[8] = test system: P. falciparum Resistant mutant; assay: Anti-malarial activity against P. falciparum in vitro, resistant mutant (Table 1); format: cell-based, Plasmodium falciparum; conditions: read-out: IC50 against P. falciparum in vitro, Resistant mutant
[9] = Pharmacokinetics of P218 / pro-drug P195 in male Swiss outbred mice; format: in vivo
Method: In a separate study, the oral bioavailability of P195, the ester pro-drug of P218 which contains a carboxylic acid side chain was investigated in mice. Male Swiss outbred mice were administered P218 (the free acid) intravenously by bolus tail vein injection at a nominal dose of 5 mg/kg and P195 (the ester pro-drug) orally by gavage at a nominal dose of 20 mg/kg. […] Blood sampling was conducted by cardiac puncture with a single sample per mouse, and two mice per time point over 16 hours post dosing. Blood samples were separated and plasma analyzed by LCMS as described above. The plasma concentration versus time profiles for P218 following IV administration of P218 and following oral administration of the pro-drug P195 are shown in FIG. 9. Plasma concentrations of P218 remained above the lower limit of quantitation (LLQ=0.0014 μM) for 7.5 h following IV administration.

[10] = Plasmodium falciparum, read-out: IC50-P. falciparum TM4/8.2 (WT), TM4/8.2

T1 sequence (A7UD81 1-608): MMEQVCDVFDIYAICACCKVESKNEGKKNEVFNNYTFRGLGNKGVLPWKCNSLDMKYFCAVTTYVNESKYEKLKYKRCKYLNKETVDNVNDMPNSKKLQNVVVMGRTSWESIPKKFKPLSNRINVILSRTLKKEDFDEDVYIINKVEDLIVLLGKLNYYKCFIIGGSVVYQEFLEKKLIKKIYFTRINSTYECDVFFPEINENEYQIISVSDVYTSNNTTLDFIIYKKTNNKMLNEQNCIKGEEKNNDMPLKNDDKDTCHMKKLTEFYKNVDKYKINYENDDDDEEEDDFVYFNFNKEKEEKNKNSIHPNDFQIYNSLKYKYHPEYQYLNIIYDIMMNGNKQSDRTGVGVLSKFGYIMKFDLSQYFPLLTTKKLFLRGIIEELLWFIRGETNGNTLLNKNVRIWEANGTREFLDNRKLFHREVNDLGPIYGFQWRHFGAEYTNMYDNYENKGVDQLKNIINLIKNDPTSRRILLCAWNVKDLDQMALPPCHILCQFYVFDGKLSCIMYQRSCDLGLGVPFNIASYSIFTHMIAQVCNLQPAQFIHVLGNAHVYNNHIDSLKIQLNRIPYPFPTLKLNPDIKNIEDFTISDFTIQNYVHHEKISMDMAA
T2 sequence (A7UD81 whole entry N51I/C59R/S108N/I164L): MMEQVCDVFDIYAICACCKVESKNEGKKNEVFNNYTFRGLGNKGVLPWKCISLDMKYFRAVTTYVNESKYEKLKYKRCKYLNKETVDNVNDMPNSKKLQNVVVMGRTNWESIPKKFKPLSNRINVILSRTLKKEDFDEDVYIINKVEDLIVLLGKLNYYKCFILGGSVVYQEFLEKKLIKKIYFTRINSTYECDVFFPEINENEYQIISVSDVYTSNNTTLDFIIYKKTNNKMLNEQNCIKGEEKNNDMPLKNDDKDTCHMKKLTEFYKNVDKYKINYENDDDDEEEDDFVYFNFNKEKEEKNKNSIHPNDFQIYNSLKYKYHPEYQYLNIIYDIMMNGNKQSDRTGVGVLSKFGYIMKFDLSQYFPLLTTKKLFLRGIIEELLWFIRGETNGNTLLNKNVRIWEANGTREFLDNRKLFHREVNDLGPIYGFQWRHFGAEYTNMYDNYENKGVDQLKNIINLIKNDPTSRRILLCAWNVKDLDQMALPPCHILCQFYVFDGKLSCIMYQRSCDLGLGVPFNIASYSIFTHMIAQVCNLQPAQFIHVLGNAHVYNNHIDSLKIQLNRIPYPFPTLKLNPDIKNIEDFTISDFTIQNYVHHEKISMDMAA

Compound	IC50 [2, 10] [nM]	ED50 (P. chabaudi AS [3]) [mg/kg]	ED90 (P. chabaudi AS [3]) [mg/kg]	Ki (Pf DHFR WT) [nM]	MIC (E. coli) [µM]	IC50 [4] [nM]	MIC (S. aureus) [µM]	Ki [5] [nM]	also measured
CCc1nc(N)nc(N)c1OCCCOc1cc(C)nc2cc(F)ccc12 [Compound P157, 2,4-diamino-6-ethyl-5-(3-(7-fluoro-2-methylquinolin-4-yloxy)propoxy)pyrimidine]	2.4 ± 0.7	0.008	0.012	1.26 ± 0.24	> 25	100	> 25	3.95 ± 0.06	Oral BA [1]: 25.5 % of dose; Vd [1]: 15.2 L/kg; clearance [1]: 74.7 mL/min/kg; half-life [1]: 17.6 h
CCOC(=O)CCCOc1ccccc1OCCCOc1c(N)nc(N)nc1CC [Compound P217, 2,4-diamino-6-ethyl-5-(3-(2-(3-ethoxycarbonylpropoxy)phenoxy)propoxy)pyrimidine]	4	< 0.63	< 0.63	0.69 ± 0.1	–	5330	–	3.3 ± 0.52	–
CC1(C)N=C(N)N=C(N)N1OCCCOc1cc(Cl)c(Cl)cc1Cl [WR99210]	–	–	–	–	–	–	–	–	ED90 P. chabaudi AS, oral (P. chabaudi AS [3]): 74.2 mg/kg; Oral BA in rats [6]: <1%; IC50 (P. falciparum Wild Type; wild type): 0.6 nM; ED90 P. chabaudi AS, s.c. (P. chabaudi AS [7]): 1.1 mg/kg; IC50 ([8]; resistant mutant): 18 nM
CCOC(=O)CCc1ccccc1OCCCOc1c(N)nc(N)nc1CC [Compound P195, 2,4-diamino-6-ethyl-5-(3-(2-(2-ethoxycarbonylethyl)phenoxy)propoxy)pyrimidine]	2.5 ± 0.7	0.21	0.69	0.26 ± 0.02	–	1250	–	1.88 ± 0.13	plasma concentrations of the pro-drug P195 ([9]; oral P195 20 mg/kg, all time points, below lower limit of quantitation): < 1.4 nM
C[C@H]1[C@@H](O)O[C@@H]2O[C@@]3(C)CC[C@H]4[C@H](C)CC[C@@H]1[C@@]24OO3 [Dihydroartemisinin, reference compound]	–	–	–	–	–	–	–	–	IC50 ([2]; Plasmodium falciparum, read-out: IC50-P. falciparum TM4/8.2 (WT), TM4/8.2, listed as printed in nM): 1.69 ± 0.39 nM
CCN(CC)CCCC(C)Nc1ccnc2cc(Cl)ccc12 (stereo not drawn) [Chloroquine, chloroquine, reference compound]	–	–	–	–	–	–	–	–	IC50 ([2]; Plasmodium falciparum, read-out: IC50-P. falciparum TM4/8.2 (WT)): 27 nM
CCOC(=O)CCCOc1ccc2nc(C)cc(OCCCOc3c(N)nc(N)nc3CC)c2c1 [Compound P219, 2,4-diamino-6-ethyl-5-(3-(6-(3-ethoxycarbonylpropoxy)-2-methylquinolin-4-yloxy)propoxy)pyrimidine]	< 10	> 5	> 5	0.52 ± 0.08	–	–	–	1.25 ± 0.22	–
CC1(C)N=C(N)N=C(N)N1c1ccc(Cl)cc1 [Cycloguanil, cycloguanil]	–	–	–	–	–	–	–	–	ED90 P. chabaudi AS, oral (P. chabaudi AS [3]): 6.2 mg/kg; Oral BA in rats [6]: 59.3%; IC50 (P. falciparum Wild Type; Plasmodium falciparum): 37 nM; ED90 P. chabaudi AS, s.c. (P. chabaudi AS [7]): 3.7 mg/kg; IC50 ([8]; Plasmodium falciparum): > 100000 nM
COc1cc(Cc2cnc(N)nc2N)cc(OC)c1OC [Trimethoprim, trimethoprim, reference compound]	–	–	–	–	1 to 10 (≈ 0.29 to 2.9 µg/mL)	–	1 to 10 (≈ 0.29 to 2.9 µg/mL)	–	–
CCc1nc(N)nc(N)c1OCCCOc1ccccc1CCC(=O)O [Compound P218, 2,4-diamino-6-ethyl-5-(3-(2-(2-carboxyethyl)phenoxy)propoxy)pyrimidine]	6	< 0.63	< 0.63	0.43 ± 0.07	–	> 10000	–	0.54 ± 0.12	time plasma concentration of P218 remained above LLQ following oral administration of ester prodrug ([9]; P195 oral 20 mg/kg, mice, LLQ=0.0014 μM): 16 h; time plasma concentrations of P218 remained above LLQ following IV administration ([9]; P218 IV 5 mg/kg, mice, LLQ=0.0014 μM): 7.5 h; bioavailability ([9]; male, Swiss outbred, mouse, plasma, oral, 20 mg/kg): ~50%
CCc1nc(N)nc(N)c1OCCCOc1ccnc2ccc(F)cc12 [Compound P153, 2,4-diamino-6-ethyl-5-(3-(6-fluoro-quinolin-4-yloxy)propoxy)pyrimidine]	0.25 ± 0.1	0.006	0.013	1.41 ± 0.13	10 to 50 (≈ 3.57 to 17.9 µg/mL)	37	10 to 50 (≈ 3.57 to 17.9 µg/mL)	3.41 ± 0.27	Oral BA [1]: 26 % of dose; Vd [1]: 17.3 L/kg; clearance [1]: 69.6 mL/min/kg; half-life [1]: 15.7 h
CCc1nc(N)nc(N)c1OCCCOc1cc(C)nc2ccccc12 [Compound P154, 2,4-diamino-6-ethyl-5-(3-(2-methylquinolin-4-yloxy)propoxy)pyrimidine]	2 ± 0.8	0.006	0.043	1.29 ± 0.14	10 to 50 (≈ 3.53 to 17.7 µg/mL)	94	> 50	4.8 ± 0.36	Oral BA [1]: 9.3 % of dose; Vd [1]: 8.8 L/kg; clearance [1]: 84.1 mL/min/kg; half-life [1]: 3.2 h
CCc1nc(N)nc(N)c1OCCCOc1cc(C)nc2ccc(OCCCC(=O)O)cc12 [Compound P169, 2,4-diamino-6-ethyl-5-(3-(6-(3-carboxypropoxy)-2-methylquinolin-4-yloxy)propoxy)pyrimidine]	0.22 ± 0.06	> 29	> 29	0.15 ± 0.04	–	420	–	0.36 ± 0.01	IC50 ([2]; read-out: IC50-P. falciparum TM4/8.2 (WT), TM4/8.2): 0.3 ± 0.1 nM
